From patent US20250059205A1, “Heterocyclic Compounds and Methods of Use” (AMGEN INC., priority 2021, published 2025)

Assays:
[1] = target: His-tagged KRAS G12D protein (Homo sapiens, UniProt P01116, G12D); assay: KRAS G12D TR-FRET Assay; type: binding
[2] = target: GDP-bound KRAS protein (aa 1-169), containing both G12D and C118A amino acid substitutions (Homo sapiens, UniProt P01116, C118A/G12D); assay: KRAS G12D Coupled Nucleotide Exchange Assay; type: biochemical; settings: 2 h compound pre-incubation
Sequence of GDP-bound KRAS protein (aa 1-169), containing both G12D and C118A amino acid substitutions (P01116 1-169 isoform P01116-2 G12D/C118A): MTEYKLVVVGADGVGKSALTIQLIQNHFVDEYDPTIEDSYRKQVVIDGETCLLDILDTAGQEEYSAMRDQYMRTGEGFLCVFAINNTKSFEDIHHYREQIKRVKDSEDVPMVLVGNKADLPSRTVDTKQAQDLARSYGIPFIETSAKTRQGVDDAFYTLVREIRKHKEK
Experimental: Following compound pre-incubation, purified SOS protein (aa 564-1049) and GTP (Roche 10106399001) were added to the assay wells and incubated for an additional 30 min. […] The assay plates were then read on a PerkinElmer EnVision Multilabel Reader, using AlphaScreen® technology, and data were analyzed using a 4-parameter logistic model to calculate IC50 values.

[3] = system: Phosphorylation of ERK1/2 in A-427 cells; assay: Phospho-ERK1/2 MSD Assay (A-427 cells); type: cell-based; settings: Homo sapiens, A-427, 2 h, 2 h treatment, read-out: p-ERK (A427 cells) IC50
Outline: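 ERK1/2 phosphorylation measured by Meso Scale whole-cell lysate assay after A-427 cells were exposed to a titration of compound for 2 h at 37 °C.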

[4] = system: Phosphorylation of ERK1/2 in AsPC-1 cells; assay: Phospho-ERK1/2 MSD Assay (AsPC-1 cells); type: cell-based; settings: Homo sapiens, ASPC1, 2 h, 2 hours treatment, read-out: p-ERK (AsPC-1 cells) IC50
Outline: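 Read-out: MSD electrochemiluminescent detection of phosphorylated ERK1/2 in whole-cell lysates, fitted to a 4-parameter logistic curve for IC50. Prior to lysis, AsPC-1 cells (25,000 per well) received a 2 h compound dose-response at 37 °C.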

Sequence of His-tagged KRAS G12D protein (P01116 1-188 isoform P01116-2 G12D): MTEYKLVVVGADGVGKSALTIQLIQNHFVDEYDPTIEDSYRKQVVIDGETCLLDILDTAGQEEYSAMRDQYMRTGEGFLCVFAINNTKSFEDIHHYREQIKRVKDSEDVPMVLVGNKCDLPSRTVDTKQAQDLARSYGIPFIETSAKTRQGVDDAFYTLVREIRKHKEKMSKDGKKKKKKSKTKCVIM

Row | Compound | IC50 [1] [nM] | Avg 2 h Coupled Exchange IC50 [2] [nM] | IC50 [3] [nM] | IC50 [4] [nM]
1 | CN1C[C@H](F)C[C@H]1COc1nc(N2[C@@H]3CC[C@H]2CNC3)c2cc(F)c(-c3cc(O)cc4cccnc34)c(F)c2n1 [Example 30, 8-(4-((1R,5S)-3,8-diazabicyclo[3.2. 1]octan-8-yl)-6,8-difluoro-2-(((2S,4R)-4-fluoro-1-methylpyrrolidin-2-yl)methoxy)quinazolin-7-yl)quinolin-6-ol] | 559 | 158 | 17700 | 21500
2 | Cc1c(-c2cc(O)cc3ccccc23)ccc2c(N3C[C@H]4CC[C@@H](C3)N4)nc(OC[C@@]34CCCN3C[C@H](F)C4)nc12 [Example 33, 4-(4-((1R,5S)-3,8-diazabicyclo[3.2. 1]octan-3-yl)-2-(((2R,7aS)-2-fluorotetrahydro-1H-pyrrolizin-7a(5H)-yl)methoxy)-8-methylquinazolin-7-yl)naphthalen-2-ol] | 8 | 3 | 291 | 509
3 | Cc1c(-c2cc(O)cc3ccccc23)ccc2c(N3[C@@H]4CC[C@H]3CNC4)nc(OC[C@@]34CCCN3C[C@H](F)C4)nc12 [Example 34, 4-(4-((1R,5S)-3,8-diazabicyclo[3.2. 1]octan-8-yl)-2-(((2R,7aS)-2-fluorotetrahydro-1H-pyrrolizin-7a(5H)-yl)methoxy)-8-methylquinazolin-7-yl)naphthalen-2-ol] | 47 | 22 | 2570 | 2980
4 | Oc1ccc(Cl)c(-c2ccc3c(N4C[C@H]5CC[C@@H](C4)N5)nc(OC[C@@]45CCCN4C[C@H](F)C5)nc3c2)c1F [Example 36, 3-(4-((1R,5S)-3,8-diazabicyclo[3.2. 1]octan-3-yl)-2-(((2R,7aS)-2-fluorotetrahydro-1H-pyrrolizin-7a(5H)-yl)methoxy)quinazolin-7-yl)-4-chloro-2-fluorophenol] | 483 | 82 | > 10000 | > 10000
5 | Cc1cc2[nH]ncc2c(-c2ccc3c(N4[C@@H]5CC[C@H]4CNC5)nc(OC[C@@]45CCCN4C[C@H](F)C5)nc3c2)c1Cl [Example 37, 4-((1R,5S)-3,8-diazabicyclo[3.2. 1]octan-8-yl)-7-(5-chloro-6-methyl-1H-indazol-4-yl)-2-(((2R,7aS)-2-fluorotetrahydro-1H-pyrrolizin-7a(5H)-yl)methoxy) quinazoline] | 193 | 73 | > 10000 | 6700
6 | Cc1c(Cl)cc2[nH]ncc2c1-c1ccc2c(N3[C@@H]4CC[C@H]3CNC4)nc(OC[C@@]34CCCN3C[C@H](F)C4)nc2c1 [Example 38, 4-((1R,5S)-3,8-diazabicyclo[3.2. 1]octan-8-yl)-7-(6-chloro-5-methyl-1H-indazol-4-yl)-2-(((2R,7aS)-2-fluorotetrahydro-1H-pyrrolizin-7a(5H)-yl)methoxy) quinazoline] | 195 | 42 | > 10000 | 6310
7 | Cc1cc2[nH]ncc2c(-c2ccc3c(N4C[C@H]5CC[C@@H](C4)N5)nc(OC[C@@]45CCCN4C[C@H](F)C5)nc3c2)c1Cl [Example 39, 4-((1R,5S)-3,8-diazabicyclo[3.2. 1]octan-3-yl)-7-(5-chloro-6-methyl-1H-indazol-4-yl)-2-(((2R,7aS)-2-fluorotetrahydro-1H-pyrrolizin-7a(5H)-yl)methoxy) quinazoline] | 20 | 9 | 569 | 1890
8 | Cc1c(Cl)cc2[nH]ncc2c1-c1ccc2c(N3C[C@H]4CC[C@@H](C3)N4)nc(OC[C@@]34CCCN3C[C@H](F)C4)nc2c1 [Example 40, 4-((1R,5S)-3,8-diazabicyclo[3.2. 1]octan-3-yl)-7-(6-chloro-5-methyl-1H-indazol-4-yl)-2-(((2R,7aS)-2-fluorotetrahydro-1H-pyrrolizin-7a(5H)-yl)methoxy) quinazoline] | 11 | 6 | 686 | 2390
9 | Oc1cc(-c2ccc3c(N4C[C@H]5CC[C@@H](C4)N5)nc(OC[C@@]45CCCN4C[C@H](F)C5)nc3c2)c2ccccc2c1 [Example 41, 4-(4-((1R,5S)-3,8-diazabicyclo[3.2. 1]octan-3-yl)-2-(((2R,7aS)-2-fluorotetrahydro-1H-pyrrolizin-7a(5H)-yl)methoxy)quinazolin-7-yl)naphthalen-2-ol] | 2 | 2 | 74 | 182
10 | Oc1cc(-c2cc3nc(OC[C@@]45CCCN4C[C@H](F)C5)nc(N4C[C@H]5CC[C@@H](C4)N5)c3cc2F)c2ccccc2c1 [Example 42, 4-(4-((1R,5S)-3,8-diazabicyclo[3.2. 1]octan-3-yl)-6-fluoro-2-(((2R,7aS)-2-fluorotetrahydro-1H-pyrrolizin-7a(5H)-yl)methoxy)quinazolin-7-yl)naphthalen-2-ol] | 3 | 3 | 77 | 223
11 | Oc1cc(-c2ccc3c(N4C[C@H]5CC[C@@H](C4)N5)nc(OC[C@]45CCCN4C[C@H](F)C5)nc3c2F)c2ccccc2c1 [Example 44, 4-(4-((1R,5S)-3,8-diazabicyclo[3.2. 1]octan-3-yl)-8-fluoro-2-(((2R,7aR)-2-fluorotetrahydro-1H-pyrrolizin-7a(5H)-yl)methoxy)quinazolin-7-yl)naphthalen-2-ol] | 2 | 2 | 19 | 114
12 | Oc1cc(-c2ccc3c(N4C[C@@H]5CC[C@H]4CN5)nc(OC[C@@]45CCCN4C[C@H](F)C5)nc3c2F)c2ccccc2c1 [Example 45, 4-(4-((1S,4S)-2,5-diazabicyclo[2.2. 2]octan-2-yl)-8-fluoro-2-(((2R,7aS)-2-fluorotetrahydro-1H-pyrrolizin-7a(5H)-yl)methoxy)quinazolin-7-yl)naphthalen-2-ol] | 4 | 2 | 25 | 190
13 | Oc1cc(-c2ccc3c(N4C[C@H]5CC[C@@H](C4)N5)nc(OC[C@@]45CCCN4C[C@H](F)C5)nc3c2F)c2ccccc2c1 [Example 46, 4-(4-((1R,5S)-3,8-diazabicyclo[3.2. 1]octan-3-yl)-8-fluoro-2-(((2R,7aS)-2-fluorotetrahydro-1H-pyrrolizin-7a(5H)-yl)methoxy)quinazolin-7-yl)naphthalen-2-ol] | 2 | 2 | 6 | 39
14 | Oc1cc(-c2c(F)cc3c(N4C[C@@H]5CC[C@H]4CN5)nc(OC[C@@]45CCCN4C[C@H](F)C5)nc3c2F)c2ccccc2c1 [Example 48, 4-(4-((1S,4S)-2,5-diazabicyclo[2.2. 2]octan-2-yl)-6,8-difluoro-2-(((2R,7aS)-2-fluorotetrahydro-1H-pyrrolizin-7a(5H)-yl)methoxy)quinazolin-7-yl)naphthalen-2-ol] | 4 | 4 | 43 | 157
15 | Oc1cc(-c2c(F)cc3c(N4C[C@@H]5C[C@H]4CN5)nc(OC[C@@]45CCCN4C[C@H](F)C5)nc3c2F)c2ccccc2c1 [Example 49, 4-(4-((1S,4S)-2,5-diazabicyclo[2.2. 1]heptan-2-yl)-6,8-difluoro-2-(((2R,7aS)-2-fluorotetrahydro-1H-pyrrolizin-7a(5H)-yl)methoxy)quinazolin-7-yl)naphthalen-2-ol] | 18 | 9 | 652 | 3600
16 | Oc1cc(-c2ccc3c(N4C[C@@H]5C[C@H]4CN5)nc(OC[C@@]45CCCN4C[C@H](F)C5)nc3c2F)c2ccccc2c1 [Example 50, 4-(4-((1S,4S)-2,5-diazabicyclo[2.2. 1]heptan-2-yl)-8-fluoro-2-(((2R,7aS)-2-fluorotetrahydro-1H-pyrrolizin-7a(5H)-yl)methoxy)quinazolin-7-yl)naphthalen-2-ol] | 11 | 7 | 1010 | 4470
17 | Oc1cc(-c2c(Cl)cc3c(N4C[C@H]5CC[C@@H](C4)N5)nc(OC[C@]45CCCN4C[C@H](F)C5)nc3c2F)c2ccccc2c1 [Example 51, 4-(4-((1R,5S)-3,8-diazabicyclo[3.2. 1]octan-3-yl)-6-chloro-8-fluoro-2-(((2R,7aR)-2-fluorotetrahydro-1H-pyrrolizin-7a(5H)-yl)methoxy)quinazolin-7-yl)naphthalen-2-ol] | 3 | 1 | 136 | 185
18 | Oc1cc(-c2c(Cl)cc3c(N4C[C@H]5CC[C@@H](C4)N5)nc(OC[C@@]45CCCN4C[C@H](F)C5)nc3c2F)c2ccccc2c1 [Example 52, 4-(4-((1R,5S)-3,8-diazabicyclo[3.2. 1]octan-3-yl)-6-chloro-8-fluoro-2-(((2R,7aS)-2-fluorotetrahydro-1H-pyrrolizin-7a(5H)-yl)methoxy)quinazolin-7-yl)naphthalen-2-ol] | 3 | 3 | 41 | 107
